Experimental data taken from patent US8148391B2 (Cephalon, Inc., priority 2006, dated 2012).
Like-named read-outs stand apart in the source and are kept apart here.

Columns and labels:
[1] = biological target: T1, baculovirus-expressed ALK (Homo sapiens, UniProt Q9UM73); assay: ALK Kinase Assay (ELISA-type, time-resolved fluorescence); type: biochemical
T1 construct: host or cells: baculovirus expression system
Summary of the method: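 Substrate coating: phospholipase C-γ, 10 μg/mL in TBS. Kinase step: 30 ng/ml ALK, 15 min, 37° C. Detection and analysis: Eu-N1 PT66 antibody, with IC50 fitted as a sigmoidal variable-slope dose-response curve.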

[2] = biological target: T2, c-Met (cytoplasmic domain) (Homo sapiens, UniProt P08581); assay: c-Met Kinase Assay (same methods as for ALK, with modifications); type: biochemical
T2 construct: 10 ng/mL c-Met (cytoplasmic domain, Invitrogen Corporation #PV3143); purchased Invitrogen Corporation PV3143
T2 sequence (P08581 956-1390 limits assumed): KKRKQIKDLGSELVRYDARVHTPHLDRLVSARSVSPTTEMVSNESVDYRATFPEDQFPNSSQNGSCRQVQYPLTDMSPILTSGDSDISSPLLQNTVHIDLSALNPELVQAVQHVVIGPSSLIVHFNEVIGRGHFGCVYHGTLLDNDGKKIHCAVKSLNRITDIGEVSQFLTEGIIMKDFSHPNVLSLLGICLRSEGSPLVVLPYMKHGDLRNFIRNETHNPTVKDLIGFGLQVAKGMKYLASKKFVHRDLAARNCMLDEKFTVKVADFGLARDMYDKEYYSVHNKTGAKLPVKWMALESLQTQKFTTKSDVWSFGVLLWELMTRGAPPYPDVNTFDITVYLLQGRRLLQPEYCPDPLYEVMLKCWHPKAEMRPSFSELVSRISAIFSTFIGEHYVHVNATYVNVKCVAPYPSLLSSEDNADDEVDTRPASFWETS
Summary of the method: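 Wells were coated with 10 μg/mL phospholipase C-γ substrate in TBS, and reactions were started with 10 ng/mL c-Met cytoplasmic domain and run at 37° C for 15 minutes. Phosphorylated product was detected with Eu-N1-labeled PT66 antibody. IC50 values came from sigmoidal variable-slope fits of percent inhibition versus log compound concentration.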

[3] = ALK kinase inhibition, 1 μM ATP, read-out: ALK Activity
[4] = c-Met kinase inhibition, 1 μM ATP, read-out: cMet Activity
[5] = 1 μM ATP (Km level), read-out: ALK Activity (ALK Kinase Inhibition, IC50)
[6] = 1 μM ATP (Km level), read-out: cMet Activity (c-Met Kinase Inhibition, IC50)
[7] = 1 μM ATP (Km level), 30 ng/ml ALK, 37° C., 15 minutes, read-out: ALK Activity (ALK kinase inhibition, IC50 class)
[8] = 1 μM ATP (Km level), 10 ng/mL c-Met, read-out: cMet Activity (c-Met kinase inhibition, IC50 class)

T1 sequence (Q9UM73 19-1620): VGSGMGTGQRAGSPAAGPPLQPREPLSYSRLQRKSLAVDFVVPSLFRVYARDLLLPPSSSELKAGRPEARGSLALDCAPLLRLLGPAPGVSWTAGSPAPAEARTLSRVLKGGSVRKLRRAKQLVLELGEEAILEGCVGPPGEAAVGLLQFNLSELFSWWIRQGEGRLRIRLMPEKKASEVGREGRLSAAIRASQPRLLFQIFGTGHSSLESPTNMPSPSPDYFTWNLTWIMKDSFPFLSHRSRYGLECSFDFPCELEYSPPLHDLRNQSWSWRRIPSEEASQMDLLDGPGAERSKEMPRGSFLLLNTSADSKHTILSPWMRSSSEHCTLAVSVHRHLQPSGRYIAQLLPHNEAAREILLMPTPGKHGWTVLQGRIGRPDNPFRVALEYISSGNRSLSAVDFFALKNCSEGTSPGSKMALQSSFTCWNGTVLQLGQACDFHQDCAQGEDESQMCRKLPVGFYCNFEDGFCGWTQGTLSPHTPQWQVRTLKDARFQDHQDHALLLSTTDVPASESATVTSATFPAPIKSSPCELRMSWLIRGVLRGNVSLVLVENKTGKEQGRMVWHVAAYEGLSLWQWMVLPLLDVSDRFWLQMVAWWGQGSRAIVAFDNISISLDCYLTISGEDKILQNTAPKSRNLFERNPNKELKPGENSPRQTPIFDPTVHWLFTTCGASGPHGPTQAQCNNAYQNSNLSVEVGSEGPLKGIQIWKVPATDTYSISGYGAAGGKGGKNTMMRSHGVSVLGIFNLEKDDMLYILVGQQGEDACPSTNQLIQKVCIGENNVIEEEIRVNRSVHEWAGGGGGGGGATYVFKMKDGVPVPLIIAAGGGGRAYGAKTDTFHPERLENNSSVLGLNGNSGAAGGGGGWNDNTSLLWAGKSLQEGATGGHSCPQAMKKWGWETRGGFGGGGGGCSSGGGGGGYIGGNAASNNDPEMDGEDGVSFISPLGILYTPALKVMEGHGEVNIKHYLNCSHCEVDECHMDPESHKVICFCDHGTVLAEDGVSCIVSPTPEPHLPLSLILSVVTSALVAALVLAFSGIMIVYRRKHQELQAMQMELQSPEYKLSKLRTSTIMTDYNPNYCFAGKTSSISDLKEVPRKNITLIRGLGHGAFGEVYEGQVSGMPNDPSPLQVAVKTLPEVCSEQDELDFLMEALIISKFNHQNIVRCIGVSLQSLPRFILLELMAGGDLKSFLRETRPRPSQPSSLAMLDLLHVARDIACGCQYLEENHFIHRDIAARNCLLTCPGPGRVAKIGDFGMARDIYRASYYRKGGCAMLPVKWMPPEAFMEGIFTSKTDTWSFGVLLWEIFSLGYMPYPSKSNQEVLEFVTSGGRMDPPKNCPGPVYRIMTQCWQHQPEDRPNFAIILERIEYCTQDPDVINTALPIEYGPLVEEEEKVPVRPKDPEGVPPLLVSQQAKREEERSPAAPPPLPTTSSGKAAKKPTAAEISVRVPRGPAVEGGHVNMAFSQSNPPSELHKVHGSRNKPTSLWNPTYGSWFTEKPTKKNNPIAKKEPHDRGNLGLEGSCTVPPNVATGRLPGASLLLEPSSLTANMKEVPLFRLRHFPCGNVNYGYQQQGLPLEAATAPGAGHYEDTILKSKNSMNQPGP

Compound	IC50 [1, 3]	IC50 [2, 4]	IC50 [1, 7]	IC50 [2, 8]	also measured
COCCNC1CCc2ccc(Nc3ncc(Cl)c(N[C@@H]4CCCC[C@H]4NS(C)(=O)=O)n3)c(OC)c2CC1 (single isomer, unassigned) [Example 694]	–	–	–	–	IC50 [1, 5]: < 100 nM; IC50 [2, 6]: > 10000 nM
1-[5-Chloro-2-(3-dimethylcarbamoylmethyl-8-methoxy-2,3,4,5-tetrahydro-1H-benzo[d]azepin-7-ylamino)-pyrimidin-4-ylamino]-cyclopentanecarboxylic acid methylamide [Example 1203]	–	–	100 to 1000 nM	> 10000 nM	–
CN1C(=O)CCC(C)(C)c2cc(Nc3ncc(Cl)c(N[C@H]4[C@@H](C(N)=O)[C@@H]5C=C[C@H]4C5)n3)ccc21 (relative stereo) [Example 386, (2-exo, 3-exo)-3-[5-Chloro-2-(1,5,5-trimethyl-2-oxo-2,3,4,5-tetrahydro-1H-benzo[b]azepin-7-ylamino)-pyrimidin-4-ylamino]-bicyclo[2.2.1]hept-5-ene-2-carboxylic acid amide]	–	–	–	–	IC50 ([1]; ALK kinase inhibition, 1 μM ATP (Km level), read-out: ALK Activity): < 100 nM; IC50 ([2]; c-Met kinase inhibition, 1 μM ATP (Km level), read-out: cMet Activity): 100 to 1000 nM
CNC(=O)c1ccccc1Nc1nc(Nc2cc3c(cc2OC)CCN(CC(F)F)CC3)ncc1Cl [Example 766, 2-{5-Chloro-2-[3-(2,2-difluoro-ethyl)-8-methoxy-2,3,4,5-tetrahydro-1H-benzo[d]azepin-7-ylamino]-pyrimidin-4-ylamino}-N-methyl-benzamide]	–	–	–	–	IC50 [1, 5]: < 100 nM; IC50 [2, 6]: 1000 to 10000 nM
CNC(=O)CN1CCc2ccc(Nc3ncc(Cl)c(Nc4c(Cl)cccc4C(=O)NC)n3)cc2CC1 [Example 1373, 3-Chloro-2-[5-chloro-2-(3-methylcarbamoylmethyl-2,3,4,5-tetrahydro-1H-benzo[d]azepin-7-ylamino)-pyrimidin-4-ylamino]-N-methyl-benzamide]	–	–	100 to 1000 nM	< 100 nM	–
Cc1ccnc(-c2ccccc2Nc2nc(Nc3ccc4c(c3)CCCC(=O)N4C)ncc2Cl)c1 [Example 1002, 7-{5-Chloro-4-[2-(4-methyl-pyridin-2-yl)-phenylamino]-pyrimidin-2-ylamino}-1-methyl-1,3,4,5-tetrahydro-benzo[b]azepin-2-one]	–	–	–	–	IC50 [1, 5]: 100 to 1000 nM; IC50 [2, 6]: 100 to 1000 nM
COc1cc2c(cc1Nc1ncc(Cl)c(Nc3ccccc3S(=O)(=O)N(C)C)n1)CCN(CC(C)(C)O)CC2 [Example 1563, 2-{5-Chloro-2-[3-(2-hydroxy-2-methyl-propyl)-8-methoxy-2,3,4,5-tetrahydro-1H-3-benzazepin-7-ylamino]-pyrimidin-4-ylamino}-N,N-dimethyl-benzenesulfonamide]	< 100 nM	1000 to 10000 nM	–	–	–
COCCN1CCc2cc(Nc3ncc(Cl)c(Nc4ccc(Cl)cc4S(=O)(=O)N(C)C)n3)c(OC)cc2CC1 [Example 839, 5-Chloro-2-{5-chloro-2-[8-methoxy-3-(2-methoxy-ethyl)-2,3,4,5-tetrahydro-1H-benzo[d]azepin-7-ylamino]-pyrimidin-4-ylamino}-N,N-dimethyl-benzenesulfonamide]	–	–	–	–	IC50 [1, 5]: < 100 nM; IC50 [2, 6]: > 10000 nM
CC(C)S(=O)(=O)c1cccc(F)c1Nc1nc(Nc2ccc3c(c2)-n2ccnc2CCC3)ncc1Cl [Example 1842, 5-Chloro-N*2*-(5,6-dihydro-4H-3,10b-diaza-benzo[e]azulen-9-yl)-N*4*-[2-fluoro-6-(propane-2-sulfonyl)-phenyl]-pyrimidine-2,4-diamine]	< 100 nM	< 100 nM	–	–	–
COCCN1CCc2cc(Nc3ncc(Cl)c(Nc4ccccc4-c4nccn4C)n3)c(OC)cc2CC1 [Example 986, 5-Chloro-N*2*-[8-methoxy-3-(2-methoxy-ethyl)-2,3,4,5-tetrahydro-1H-benzo[d]azepin-7-yl]-N*4*-[2-(1-methyl-1H-imidazol-2-yl)-phenyl]-pyrimidine-2,4-diamine]	–	–	–	–	IC50 [1, 5]: < 100 nM; IC50 [2, 6]: > 10000 nM

The next lines start with results.

IC50 [1, 3]	IC50 [2, 4]	IC50 [1, 7]	IC50 [2, 8]	Compound	also measured
< 100 nM	< 100 nM	–	–	CNC(=O)c1ccccc1Nc1nc(Nc2ccc3c(c2)CCOC(=O)N3C)ncc1Cl [Example 1741, 2-[5-Chloro-2-(5-methyl-6-oxo-5,6,8,9-tetrahydro-7-oxa-5-aza-benzocyclohepten-2-ylamino)-pyrimidin-4-ylamino]-N-methylbenzamide]	–
–	–	100 to 1000 nM	100 to 1000 nM	CCN1C(=O)CCCc2ccc(Nc3ncc(Cl)c(Nc4cccc(CCC#N)c4)n3)cc21 [Example 1223, 3-{3-[5-Chloro-2-(1-ethyl-2-oxo-2,3,4,5-tetrahydro-1H-1-benzazepin-8-ylamino)-pyrimidin-4-ylamino]-phenyl}-propionitrile]	–
–	–	1000 to 10000 nM	100 to 1000 nM	Cc1cccc(C(=O)NCC#N)c1Nc1nc(Nc2ccc3c(c2)CCCC(=O)N3C)ncc1Cl [Example 1039, 2-[5-Chloro-2-(1-methyl-2-oxo-2,3,4,5-tetrahydro-1H-benzo[b]azepin-7-ylamino)-pyrimidin-4-ylamino]-N-cyanomethyl-3-methyl-benzamide]	–
1000 to 10000 nM	< 100 nM	–	–	CNC(=O)c1cccc(Cl)c1Nc1nc(Nc2ccc3c(c2)CCOC(=O)N3C)ncc1Cl [Example 1743, 3-Chloro-2-[5-chloro-2-(5-methyl-6-oxo-5,6,8,9-tetrahydro-7-oxa-5-aza-benzocyclohepten-2-ylamino)-pyrimidin-4-ylamino]-N-methyl-benzamide]	–
–	–	< 100 nM	< 100 nM	CNC(=O)c1cccc(F)c1Nc1nc(Nc2ccc3c(c2)CCN(CC(=O)N(C)C)CC3)ncc1Cl [Example 1369, 2-[5-Chloro-2-(3-dimethylcarbamoylmethyl-2,3,4,5-tetrahydro-1H-benzo[d]azepin-7-ylamino)-pyrimidin-4-ylamino]-3-fluoro-N-methyl-benzamide]	–
100 to 1000 nM	100 to 1000 nM	–	–	C#CCNC(=O)c1cccc(F)c1Nc1nc(Nc2ccc3c(c2)N(C(=O)CN(C)C)CCCC3(C)C)ncc1Cl [Example 1631, 2-{5-Chloro-2-[1-(2-dimethylamino-acetyl)-5,5-dimethyl-2,3,4,5-tetrahydro-1H-benzo[b]azepin-8-ylamino]-pyrimidin-4-ylamino}-3-fluoro-N-prop-2-ynyl-benzamide]	–
–	–	100 to 1000 nM	1000 to 10000 nM	CN(CCC#N)c1cccc(F)c1Nc1nc(Nc2ccc3c(c2)C(C)(C)CCC(=O)N3)ncc1Cl [Example 1267, 3-({2-[5-Chloro-2-(5,5-dimethyl-2-oxo-2,3,4,5-tetrahydro-1H-1-benzazepin-7-ylamino)-pyrimidin-4-ylamino]-3-fluoro-phenyl}-methyl-amino)-propionitrile]	–
–	–	100 to 1000 nM	1000 to 10000 nM	CN1C(=O)OCCc2cc(Nc3ncc(Cl)c(Oc4c(F)cccc4OC4CCOC4)n3)ccc21 (centres unmarked) [Example 1307, 2-{5-Chloro-4-[2-fluoro-6-(tetrahydro-furan-3-yloxy)-phenoxy]-pyrimidin-2-ylamino}-5-methyl-8,9-dihydro-5H-7-oxa-5-aza-benzocyclohepten-6-one]	–
< 100 nM	> 10000 nM	–	–	COc1cc2c(cc1Nc1ncc(Cl)c(N[C@H]3[C@@H](C(N)=O)[C@@H]4C=C[C@H]3C4)n1)CCN(CC(C)O)CC2 (stereo partly drawn) [Example 1548, (1S,2S,3R,4R)-3-{5-Chloro-2-[3-(2-hydroxy-propyl)-8-methoxy-2,3,4,5-tetrahydro-1H-3-benzazepin-7-ylamino]-pyrimidin-4-ylamino}-bicyclo[2.2.1]hept-5-ene-2-carboxylic acid amide]	–
